Reference: patent US7582483B2, “Method of detecting viable cells” (Fuji Electric Holdings Co., Ltd., priority 2004, dated 2009)

Test system: Escherichia coli
Assay: detection of viable microbes in solid food (namul of spinach) with added Escherichia coli, CFDA and Phenol Red solutions at various pH
Type: cell-based
Conditions: pH 5 of the CFDA solution and the Phenol Red solution
Procedure: In a second example, detection of live microbes was conducted using solid food (namul of spinach) to which Escherichia coli were added. The treatment to extract the microbes from the solid food into liquid was carried out referring to “A Guide to Food Sanitation Test, Volume on Microorganisms” (in Japanese; published by Japan Food Hygiene Association, 1990). Ten grams of the solid food (namul of spinach) to which Escherichia coli (about 10^7) was added was aliquoted into a stomacher bag. (The stomacher bag is made of flexible plastic film such as polyethylene and sterilized by radiation. There is a compartment inside the stomacher bag created by a partition of non-woven fabric or a plastic film with a pore size of about 0.28 mm diameter, and a liquid component can be extracted excluding relatively large solid bodies from the compartment. The aliquot of the solid food is supplied with 90 mL of sterile phosphate buffer saline and crushed and dispersed using a stomacher. A stomacher is an apparatus for extracting live microbes contained in food to liquid. In the stomacher, the stomacher bag containing food is placed between a fixed plate and a paddle and the food is crushed and dispersed by squeezing the bag containing food while moving the paddle back and forth. […] Using the liquid, viable microbes were detected in a procedure similar to that in Example 1. […]

carboxyfluorescein diacetate [CFDA]
staining of viable microbes with the fluorescent dye: the viable microbes were not stained with the fluorescent dye
